Data: ChEMBL document CHEMBL4052680, “Semi-quantitative models for identifying potent and selective transthyretin amyloidogenesis inhibitors” (Bioorg Med Chem Lett, 2017)

What was measured:
[1] = organism: Rattus norvegicus; test: Displacement of [125I]-triiodothyronine from thyroid hormone receptor in rat liver membrane homogenates assessed as relative T3 displacement incubated for 18 hrs by scintillation counting method relative to control; type: cell membranes
[2] = organism: Rattus norvegicus; test: Displacement of [125I]-triiodothyronine from thyroid hormone receptor in rat liver membrane homogenates incubated for 18 hrs by scintillation counting method; type: cell membranes; design: concentration or dose not given beside the values; conditions: concentration not given here

SMILES	relative binding affinity (RBA) [1]	inhibition [2] [%]
Cc1cccc(C)c1/C=C/c1cc(Br)c(O)c(Br)c1	0.42	42
Cc1cc(-c2cc(C)c(O)c(C)c2)cc(C)c1O	0.11	11
Oc1c(Br)cc(/C=C/c2ccccc2I)cc1Br	0.55	55
Oc1c(Br)cc(-c2nc3cccc(Cl)c3o2)cc1Br	0.62	62
Cc1cc(C)cc(-c2cccc3oc4ccccc4c23)c1	0.02	2
Oc1c(I)cc(-c2nc3cccc(Cl)c3o2)cc1I	0.92	92
Oc1c(Br)cc(/C=C/c2cccc(I)c2)cc1Br	0.45	45
Cc1cccc(/C=C/c2cc(Br)c(O)c(Br)c2)c1	0.35	35
Cc1ccccc1/C=C/c1cc(Br)c(O)c(Br)c1	0.44	44
COc1cccc(/C=C/c2cc(Br)c(N)c(Br)c2)c1	0.01	1
Cc1cc(C)cc(Nc2cccc3oc4ccccc4c23)c1	0	0
O=C(O)c1ccc(C(=O)Nc2cc(Br)cc(Br)c2)cc1	0.13	13
Cc1cc(C)cc(/C=C/c2cc(Br)c(O)c(Br)c2)c1	0.2	20
O=[N+]([O-])c1ccccc1COc1cc(Br)cc(Br)c1	0	0
Cc1cc(C)cc(Oc2cccc3oc4ccccc4c23)c1	0	0
Oc1c(Br)cc(/C=C/c2ccccc2C(F)(F)F)cc1Br	0.69	69
O=[N+]([O-])c1ccccc1S(=O)(=O)Nc1cc(Cl)c(O)c(Cl)c1	0.07	7
Oc1cccc(/C=C/c2cc(Br)c(O)c(Br)c2)c1	0.64	64
COc1ccccc1/C=C/c1cc(Br)c(O)c(Br)c1	0.32	32
Clc1cccc(Cl)c1COc1cc(Br)cc(Br)c1	0.04	4
Nc1cccc(/C=C/c2cc(Br)c(N)c(Br)c2)c1	0.03	3
Cc1cc(-c2nc3c([N+](=O)[O-])cccc3o2)cc(C)c1O	0.16	16

SMILES	relative binding affinity (RBA) [1]	inhibition [2] [%]
COc1cccc(OC)c1/C=C/c1cc(Br)c(O)c(Br)c1	0	0
O=[N+]([O-])c1ccccc1/C=C/c1cc(Br)c(O)c(Br)c1	0.21	21
Brc1cc(Br)cc(Oc2cccc3oc4ccccc4c23)c1	0	0
Brc1cc(Br)cc(-c2cccc3oc4ccccc4c23)c1	0	0
Oc1c(Br)cc(Oc2cccc3oc4ccccc4c23)cc1Br	0.94	94
COc1ccccc1C(=O)Nc1cc(Br)cc(Br)c1	0.1	10
Oc1c(Br)cc(/C=C/c2c(Br)cccc2Br)cc1Br	0.35	35
Oc1c(Br)cc(-c2cccc3oc4ccccc4c23)cc1Br	0.36	36
COc1cccc(OC)c1/C=C/c1cc(Br)c(N)c(Br)c1	0.02	2
COc1cccc(/C=C/c2cc(Br)c(O)c(Br)c2)c1	0	0
O=C(O)c1ccc2nc(-c3cc(Cl)cc(Cl)c3)oc2c1	0	0
Cc1cc(-c2cccc3oc4ccccc4c23)cc(C)c1O	0	0
Oc1c(I)cc(/C=C/c2c(Cl)cccc2Cl)cc1I	0.92	92
Oc1c(Br)cc(/C=C/c2ccccc2Br)cc1Br	0.69	69
Cc1cc(CCc2c(Cl)cccc2Cl)cc(C)c1O	0.4	40
COc1ccccc1NC(=O)Nc1cc(Br)c(O)c(Br)c1	0.14	14
Cc1cc(Oc2cccc3oc4ccccc4c23)cc(C)c1O	0	0
Oc1cc(O)cc(/C=C/c2cc(Br)c(O)c(Br)c2)c1	0.66	66
Oc1c(Br)cc(/C=C/c2c(Cl)cccc2Cl)cc1Br	0.7	70
Clc1cccc(Cl)c1/C=C/c1cc(Br)cc(Br)c1	0.13	13
Oc1ccccc1/C=C/c1cc(Br)c(O)c(Br)c1	0.22	22
Cc1cc(/C=C/c2c(Cl)cccc2Cl)cc(C)c1O	0.41	41

Now from value to compound:

relative binding affinity (RBA) [1]	inhibition [2] [%]	SMILES
0	0	Nc1ccc(/C=C/c2cc(Br)c(N)c(Br)c2)cc1
0.02	2	Oc1c(Br)cc(NCc2ccccc2)cc1Br
0	0	COc1ccccc1CCc1cc(Br)c(O)c(Br)c1
0.08	8	Oc1c(Br)cc(CCc2ccccc2C(F)(F)F)cc1Br
0	0	Nc1ccc(/C=C/c2cc(Br)c(O)c(Br)c2)cc1
0	0	COc1cccc(OC)c1CCc1cc(Br)c(O)c(Br)c1
0	0	Nc1ccc(CCc2cc(Br)c(O)c(Br)c2)cc1
0.61	61	Oc1c(Br)cc(CCc2c(F)cccc2F)cc1Br
0.16	16	COc1ccc(/C=C/c2cc(Br)c(O)c(Br)c2)cc1
0	0	Nc1cccc(CCc2cc(Br)c(O)c(Br)c2)c1
0.5	50	Oc1ccc(/C=C/c2cc(Br)c(O)c(Br)c2)cc1
0.03	3	O=[N+]([O-])c1ccccc1CCc1cc(Br)c(O)c(Br)c1
0.04	4	Cc1cccc(CCc2cc(Br)c(O)c(Br)c2)c1
0.12	12	Cc1cccc(C)c1CCc1cc(Br)c(O)c(Br)c1
0.15	15	Nc1ccccc1/C=C/c1cc(Br)c(O)c(Br)c1
0	0	Nc1cccc(/C=C/c2cc(Br)c(O)c(Br)c2)c1
0.4	40	Oc1c(Br)cc(/C=C/c2ccc(F)cc2)cc1Br
0.45	45	Oc1c(Br)cc(CCc2c(Cl)cccc2Cl)cc1Br
0.19	19	Oc1c(Br)cc(CCc2cccc(F)c2)cc1Br
0.05	5	COc1cccc(CCc2cc(Br)c(O)c(Br)c2)c1
